The record followed here is PubChem BioAssay (NCI).

Among the test systems are CAKI-1 renal; CCRF-CEM leukemia; HCC-2998 colon; KM12 colon; NCI-H23 lung; OVCAR-3 ovarian; RXF 393 renal; SF-295 CNS; SN12C renal; UACC-62 melanoma.
Common to all, as to assay: NCI anticancer screen, dose series, 48 h

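Method: 48-hour compound exposure of cells in 96-well plates, five concentrations, linear interpolation of endpoints. The concentration for 50% growth inhibition is given as GI50. At the TGI there is no net growth.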 Some results are limits rather than exact numbers.

Regarding `OCCn1c(-c2ccncc2)c(-c2ccc(F)cc2)c2ncccc21`, the GI50 in the assay with CAKI-1 renal was above 25 µM; in the assay on CCRF-CEM leukemia, above 25000 nM; with HCC-2998 colon, above 25000 nM; in the assay on KM12 colon it was above 25 µM; with NCI-H23 lung, above 25 µM; in the assay with OVCAR-3 ovarian, above 25 µM. The GI50 was above 25 µM in the assay with RXF 393 renal, above 25000 nM in the assay with SF-295 CNS, above 25 µM in the assay on SN12C renal and above 25 µM in the assay with UACC-62 melanoma. Besides, the TGI in the assay with CAKI-1 renal, in the assay on CCRF-CEM leukemia, in the assay with HCC-2998 colon, with KM12 colon, in the assay with NCI-H23 lung and in the assay on OVCAR-3 ovarian was above 25 µM in each case. In addition, the TGI in the assay with RXF 393 renal, with SF-295 CNS, in the assay with SN12C renal and with UACC-62 melanoma was above 25 µM each time.
`CC(C)C12CCC3(CCC4C(C)(C(=O)O)CCCC4(C)C3C1)C(CN)C2` (stereo not given): the TGI in the assay on CAKI-1 renal is above 100 µM; in the assay on CCRF-CEM leukemia, 19.4 µM; in the assay on HCC-2998 colon it was 36.2 µM; in the assay with KM12 colon it was above 100 µM; with NCI-H23 lung, 72.1 µM; in the assay with OVCAR-3 ovarian it was above 100 µM. The TGI was above 100 µM with RXF 393 renal, above 100 µM in the assay on SF-295 CNS, 43.3 µM in the assay with SN12C renal and above 100 µM in the assay on UACC-62 melanoma.
Turning to `CC(=O)Nc1ccc(C(=O)COc2cccc(/C=C3\CCc4ccccc4C3=O)c2)cc1`, the GI50 in the assay with CAKI-1 renal was 21 µM; with CCRF-CEM leukemia, 2310 nM; in the assay on HCC-2998 colon, 17700 nM; with KM12 colon it was 4.92 µM; in the assay with NCI-H23 lung it was 14.4 µM; in the assay on OVCAR-3 ovarian it was 17.4 µM. For the same compound, the GI50 in the assay on RXF 393 renal was 24.8 µM; in the assay with SF-295 CNS, 11200 nM; in the assay with SN12C renal it was 27.6 µM; in the assay on UACC-62 melanoma, 12.5 µM. Also, the TGI in the assay with CAKI-1 renal turned out to be 77.1 µM; with CCRF-CEM leukemia, 6.09 µM; with HCC-2998 colon, 32.2 µM; with KM12 colon, 18.1 µM; with NCI-H23 lung it was 43.4 µM; with OVCAR-3 ovarian, 39.1 µM. Further, the TGI in the assay with RXF 393 renal was 57.8 µM; in the assay with SF-295 CNS it was 39.6 µM; in the assay on SN12C renal, above 100 µM; in the assay with UACC-62 melanoma, 32.7 µM.
Consider `COc1ccc(Cl)cc1Nc1nc(C(F)(F)F)ccc1C(=O)N/N=C/c1ccc(Cl)cc1`, for which the GI50 with CAKI-1 renal was 5.37 µM; with CCRF-CEM leukemia it was 594 nM; with HCC-2998 colon it was 2670 nM; in the assay with KM12 colon, 5.16 µM; with NCI-H23 lung it was 9.57 µM; in the assay with OVCAR-3 ovarian, 0.576 µM. For the same compound, the GI50 with RXF 393 renal was 4.56 µM; in the assay with SF-295 CNS, 2090 nM; with SN12C renal, 8.67 µM; in the assay with UACC-62 melanoma it was 8.01 µM. Also, the TGI is 29.7 µM with CAKI-1 renal; 10.3 µM in the assay with CCRF-CEM leukemia; above 100 µM in the assay with HCC-2998 colon; above 100 µM in the assay with KM12 colon; 42 µM in the assay with NCI-H23 lung; 1.66 µM in the assay on OVCAR-3 ovarian. For the same compound, the TGI in the assay on RXF 393 renal was 53.2 µM; with SF-295 CNS, 12.1 µM; in the assay on SN12C renal, above 100 µM; in the assay on UACC-62 melanoma it was 40.9 µM.
For `O=C(c1ccccc1)c1ccc(N2C(=O)C3C4c5ccccc5C(/C=C/C(=O)c5ccccn5)(c5ccccc54)C3C2=O)cc1` (stereo not given), the GI50 is 8.82 µM in the assay on CAKI-1 renal; 976 nM in the assay on CCRF-CEM leukemia; 1720 nM in the assay with HCC-2998 colon; 1.88 µM with KM12 colon; 2.05 µM with NCI-H23 lung; 1.83 µM with OVCAR-3 ovarian. The GI50 is 1.56 µM with RXF 393 renal, 2030 nM in the assay with SF-295 CNS, 2.73 µM in the assay with SN12C renal and 2.21 µM in the assay with UACC-62 melanoma. Further, the TGI was above 100 µM with CAKI-1 renal; above 100 µM with CCRF-CEM leukemia; 3.34 µM in the assay with HCC-2998 colon; 4.39 µM with KM12 colon; 5.09 µM in the assay with NCI-H23 lung; 3.85 µM in the assay with OVCAR-3 ovarian. Moreover, the TGI in the assay on RXF 393 renal is 3.07 µM; in the assay on SF-295 CNS it was 5.07 µM; in the assay with SN12C renal it was above 100 µM; with UACC-62 melanoma, 7.44 µM.
Turning to `CN1OC(CO)CC12C1CC3CC(C1)CC2C3` (stereo not given), the TGI with CAKI-1 renal, in the assay with CCRF-CEM leukemia, in the assay with HCC-2998 colon, with KM12 colon, with NCI-H23 lung and with OVCAR-3 ovarian was above 100 µM in each case. Further, the TGI with RXF 393 renal, in the assay with SF-295 CNS, in the assay with SN12C renal and in the assay on UACC-62 melanoma was above 100 µM in each case.
Turning to `Nc1ccc(N)c2c1C(=O)c1cccc([N+](=O)[O-])c1C2=O`, the GI50 was 0.549 µM in the assay with CAKI-1 renal; 7950 nM in the assay with CCRF-CEM leukemia; 373 nM in the assay on HCC-2998 colon; 4.15 µM in the assay on KM12 colon; 0.44 µM in the assay with NCI-H23 lung; 5.19 µM with OVCAR-3 ovarian. Further, the GI50 was 7.16 µM in the assay with RXF 393 renal, 776 nM with SF-295 CNS, 2.48 µM in the assay with SN12C renal and 1.2 µM in the assay with UACC-62 melanoma. Further, the TGI was 4.07 µM in the assay on CAKI-1 renal; above 100 µM in the assay on CCRF-CEM leukemia; 1.49 µM in the assay on HCC-2998 colon; above 100 µM with KM12 colon; 2.73 µM with NCI-H23 lung; above 100 µM with OVCAR-3 ovarian. Moreover, the TGI in the assay on RXF 393 renal was 54.9 µM; in the assay with SF-295 CNS it was above 100 µM; in the assay on SN12C renal it was above 100 µM; in the assay with UACC-62 melanoma, 5.65 µM.
For `CC(C)c1nc(Cl)c(Cl)c(Cl)n1`, the TGI in the assay on CAKI-1 renal is 11.8 µM; with CCRF-CEM leukemia, 9.33 µM; in the assay with HCC-2998 colon, 15.7 µM; in the assay on KM12 colon it was 23.3 µM; with NCI-H23 lung, 22.3 µM; in the assay on OVCAR-3 ovarian, 8.2 µM. The TGI was 7.97 µM with RXF 393 renal, 29 µM in the assay on SF-295 CNS, 16.9 µM with SN12C renal and 23.1 µM with UACC-62 melanoma.
